Experimental data published in ChEMBL document CHEMBL4373655, “Aminopyrimidine-galactose hybrids are highly selective galectin-3 inhibitors” (Medchemcomm, 2019).

How the values were obtained:
[1] = Solubility of the compound in DMSO up to 900 uM; assay type: physicochemical
[2] = Solubility of the compound in DMSO at >[…] uM; assay type: physicochemical

## CO[C@@H]1O[C@H](CO)[C@H](O)[C@H](OCc2cc(-c3ccc(Br)cc3)nc(N)n2)[C@H]1O
[1]
  solubility: Soluble
[2]
  solubility: Insoluble

## CO[C@@H]1O[C@H](CO)[C@H](O)[C@H](OCc2cc(-c3cccc(Cl)c3)nc(N)n2)[C@H]1O
[1]
  solubility: Soluble
[2]
  solubility: Insoluble

## CO[C@@H]1O[C@H](CO)[C@H](O)[C@H](OCc2cc(-c3cccc(C)c3)nc(N)n2)[C@H]1O
[1]
  solubility: Soluble
[2]
  solubility: Insoluble

## CO[C@@H]1O[C@H](CO)[C@H](O)[C@H](OCc2cc(-c3ccc4ccccc4c3)nc(N)n2)[C@H]1O
[1]
  solubility: Soluble
[2]
  solubility: Insoluble

## CO[C@@H]1O[C@H](CO)[C@H](O)[C@H](OCc2cc(-c3cccc4ccccc34)nc(N)n2)[C@H]1O
[1]
  solubility: Soluble
[2]
  solubility: Insoluble

## CO[C@@H]1O[C@H](CO)[C@H](O)[C@H](OCc2cc(-c3ccc(Cl)cc3)nc(N)n2)[C@H]1O
[1]
  solubility: Soluble
[2]
  solubility: Insoluble

## CO[C@@H]1O[C@H](CO)[C@H](O)[C@H](OCc2cc(-c3ccc(-c4ccccc4)cc3)nc(N)n2)[C@H]1O
[1]
  solubility: Soluble
[2]
  solubility: Insoluble

## CO[C@@H]1O[C@H](CO)[C@H](O)[C@H](OCc2cc(-c3cccc(F)c3)nc(N)n2)[C@H]1O
[1]
  solubility: Soluble
[2]
  solubility: Insoluble

## CO[C@@H]1O[C@H](CO)[C@H](O)[C@H](OCc2cc(-c3ccc(C(C)(C)C)cc3)nc(N)n2)[C@H]1O
[1]
  solubility: Soluble
[2]
  solubility: Insoluble

## CO[C@@H]1O[C@H](CO)[C@H](O)[C@H](OCc2cc(-c3ccc(F)cc3)nc(N)n2)[C@H]1O
[1]
  solubility: Soluble
[2]
  solubility: Insoluble

## CO[C@@H]1O[C@H](CO)[C@H](O)[C@H](OCc2cc(-c3cccc(-c4ccccc4)c3)nc(N)n2)[C@H]1O
[1]
  solubility: Soluble
[2]
  solubility: Insoluble

## CO[C@@H]1O[C@H](CO)[C@H](O)[C@H](OCc2cc(-c3ccc(C)cc3)nc(N)n2)[C@H]1O
[1]
  solubility: Soluble
[2]
  solubility: Insoluble

## CO[C@@H]1O[C@H](CO)[C@H](O)[C@H](OCc2cc(-c3ccccc3)nc(N)n2)[C@H]1O
[1]
  solubility: Soluble
[2]
  solubility: Insoluble

## CO[C@@H]1O[C@H](CO)[C@H](O)[C@H](OCc2cc(-c3ccccc3F)nc(N)n2)[C@H]1O
[1]
  solubility: Soluble
[2]
  solubility: Insoluble
